Source: EP2924039A1, “2-Amino-1-phenyl-pyrrolo[3,2-b]quinoxaline-3-carboxamide derivates” (Universität Zürich, priority 2014, dated 2015)

Legend:
HT-29 = test: Cell culture and GI50 determination (resazurin), HT-29; assay type: cell-based; conditions: Homo sapiens; HT-29, resazurin
Experimental: (§1) The old media was removed, the cells were washed with PBS (phosphate-buffered saline) and fresh media was added. […] Control cells were treated with the same DMSO concentrations. […] After 3 hours, the fluorescence was quantified using a fluorescence microplate reader (Biotek, FLx800™) at the respective excitation and emission wavelength of 560 and 590 nm. Resazurin becomes fluorescent under mitochondrial reduction and its emission directly correlates with the metabolic stability of the cells. […] All measurements were performed at least in triplicate (see table 1).

[1] = system: A498 (kidney cancer) cells; test: Cell culture and GI50 determination (resazurin), A-498; assay type: cell-based; conditions: Homo sapiens, A-498, 48h incubation
Experimental: (§2) Krek (Institute of Cell Biology, ETH Zurich) were cultured in Dulbelcco's modified Eagle's medium (DMEM) supplemented with 10% (v/v) fetal bovine serum. K562 leukemia cells obtained from Dr. Silvio Hemmi (Institute of Molecular Life Sciences, UZH) were cultured using RPMI medium supplemented with 5% (v/v) fetal bovine serum. All the media was additionally supplemented with 100 units/mL of penicillin, 100µg/mL of streptomycin, 4.5 g/L glucose, 0.11g/L sodium pyrubate and 2mM glutamine and the cells were grown at 37°C in 5% CO2 atmosphere with 80% relative humidity.
as §1

EphA3 = molecular target: T1, EphA3 (Homo sapiens, UniProt P29320); test: Differential Scanning Fluorimetry; assay type: binding; conditions: 2 µM EphA3, compound 20µM; read-out: Delta Tm
T1 construct: A clone of EphA3 kinase domain (residues: 606-947); made in house; host or cells: Escherichia coli BL21 (DE3)
T1 sequence (P29320 606-947): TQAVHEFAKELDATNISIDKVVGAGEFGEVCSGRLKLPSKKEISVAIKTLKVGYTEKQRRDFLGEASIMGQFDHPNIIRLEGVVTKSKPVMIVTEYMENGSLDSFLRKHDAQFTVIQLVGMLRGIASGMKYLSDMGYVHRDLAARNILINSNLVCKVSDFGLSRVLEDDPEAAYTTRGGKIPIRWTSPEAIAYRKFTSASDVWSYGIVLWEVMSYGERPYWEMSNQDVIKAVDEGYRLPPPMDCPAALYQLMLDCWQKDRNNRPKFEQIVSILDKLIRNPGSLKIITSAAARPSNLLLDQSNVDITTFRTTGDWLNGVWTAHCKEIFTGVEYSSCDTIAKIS
Experimental: Cell pellets were resuspended in buffer A (50mM Tris, pH 8.0 and 100mM NaCl, supplemented with protease inhibitors) and lysed by sonication. After centrifugation at 15,000 rpm for 1 h, the soluble fraction of EphA3 was purified using […] (GE healthcare), followed by gel filtration chromatography (Superdex75; GE healthcare). The appropriate fractions were combined and concentrated to ~10 mg/mL using Amicon filter devices (10kDa as cutoff) in a storage solution (100mM sodium chloride and 10mM Tris-HCl pH 8.0, 5% glycerol). The resulting solution was aliquoted and stored at -80°C for further usage.
A final volume of 40µL was added per well in a 96 well plate and incubated at room temperature for 1 h. The plates were centrifuged for 3 min at 450 rcf. The temperature gradient was performed in the range of 25°C-75°C (50 acquisitions per degree at a ramp rate of 4.4°C/s) using a LightCycler 480 Real-Time PCR System. […] All measurements were performed in triplicate.

[2] = system: HOP-92 (lung cancer) cells; test: Cell culture and GI50 determination (resazurin), HOP-92; assay type: cell-based; conditions: Homo sapiens; HOP-92, resazurin
Experimental: as §2, §1

[3] = system: MDA-MB-231 (breast cancer) cells; test: Cell culture and GI50 determination (resazurin), MDA-MB-231; assay type: cell-based; conditions: Homo sapiens, MDA-MB-231, 72 h
Experimental: as §2, §1

K-562 leukemia cells = test: Cell culture and GI50 determination (resazurin), K-562; assay type: cell-based; conditions: Homo sapiens, K562, K-562, 48 hour incubation
Experimental: as §2
After 24 hours, 12.5 µL of a 10 fold concentrated drug or DMSO solution in RMPI media was added in every well. After 48 hour incubation, cell viability was studied by measuring the ability of the cells to process resazurin.

[4] = system: KM12 (colon cancer) cells; test: Cell culture and GI50 determination (resazurin), KM12; assay type: cell-based; conditions: Homo sapiens
Experimental: as §2, §1

[5] = system: panel of 456 protein kinases; test: Selectivity profiling at DiscoveRx (KinomeScan); assay type: binding; conditions: 1 µM compound; for one or more of the protein kinases listed
Experimental: The selectivity profiling of compounds 10c, 10d, 10n and 10o were performed at DiscoveRx in a library of 456 kinases at a concentration of 1 µM. Briefly, kinases were mostly expressed as fusion proteins to […] and grown in 24-well blocks in E. Coli (derived from the BL21 strain). The rest of the kinases were expressed in HEK-293 cells and tagged with DNA for qPCR detection. Affinity resins were generated by mixing streptavidin-coated magnetic beads with biotinylated small molecule ligands for 30 minutes at 25 °C, followed by biotin and blocking buffer addition (SeaBlock (Pierce), 1 % BSA, 0.05 % Tween 20, 1 mM DTT). Inhibitors were kept at 40x stocks in 100% DMSO and added to the corresponding 384-well plates (40 µL). […] The kinase concentration present in the eluate was determined by qPCR. For further details, see Fabian, et. al., Nat. Biotechnol., 2005, 23 (3), 329-33.

full-length human EphB4 = molecular target: T2, full-length human EphB4 (Homo sapiens, UniProt P54760); test: Cellular phosphorylation assay (sandwich ELISA, ProQinase); assay type: cell-based; conditions: mouse embryonic fibroblast cells overexpressing EphB4, stimulated with murine ephrinB2-Fc, read-out: cell IC50
T2 construct: stably transfected to overexpress full-length human EphB4; host or cells: Mouse embryonic fibroblast cells
T2 sequence (P54760 16-987): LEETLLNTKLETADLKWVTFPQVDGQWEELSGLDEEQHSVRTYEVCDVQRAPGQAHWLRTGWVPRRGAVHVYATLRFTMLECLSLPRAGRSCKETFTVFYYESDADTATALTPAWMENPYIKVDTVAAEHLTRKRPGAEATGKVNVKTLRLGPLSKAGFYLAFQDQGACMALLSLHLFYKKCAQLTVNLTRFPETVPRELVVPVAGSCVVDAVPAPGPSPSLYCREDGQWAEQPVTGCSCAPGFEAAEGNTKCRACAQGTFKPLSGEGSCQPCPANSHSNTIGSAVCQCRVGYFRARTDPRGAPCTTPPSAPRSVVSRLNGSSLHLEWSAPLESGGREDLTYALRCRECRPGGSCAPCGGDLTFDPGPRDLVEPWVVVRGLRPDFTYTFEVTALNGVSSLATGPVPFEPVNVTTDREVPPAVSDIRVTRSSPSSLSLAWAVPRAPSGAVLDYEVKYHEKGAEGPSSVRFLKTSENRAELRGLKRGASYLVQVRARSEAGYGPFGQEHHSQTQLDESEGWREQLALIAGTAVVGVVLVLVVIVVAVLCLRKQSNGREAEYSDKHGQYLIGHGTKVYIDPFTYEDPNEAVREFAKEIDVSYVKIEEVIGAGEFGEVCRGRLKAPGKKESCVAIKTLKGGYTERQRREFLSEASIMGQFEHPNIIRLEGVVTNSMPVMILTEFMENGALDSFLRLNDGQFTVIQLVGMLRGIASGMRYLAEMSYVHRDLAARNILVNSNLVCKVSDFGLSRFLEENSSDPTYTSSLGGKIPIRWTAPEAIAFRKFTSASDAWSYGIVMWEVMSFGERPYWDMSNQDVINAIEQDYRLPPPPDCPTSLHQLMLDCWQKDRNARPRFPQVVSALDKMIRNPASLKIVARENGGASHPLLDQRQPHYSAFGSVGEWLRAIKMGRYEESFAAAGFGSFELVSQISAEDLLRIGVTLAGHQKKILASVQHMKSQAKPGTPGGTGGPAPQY
Experimental: Cellular phosphorylation assays: The cellular phosphorylation experiments were performed at ProQinase GmbH. Mouse embryonic fibroblast cells, stably transfected to overexpress full-length human EphB4, were plated at 4×10^4 cells/well in DMEM supplemented with 10% FCS in 48-well culture dishes. Medium was replaced by DMEM without FCS before test compounds prediluted in 100% DMSO were added (final DMSO concentration of 1 %). After incubation for 90 min at 37 °C, cells were stimulated for 2 h at 4 °C using murine ephrinB2-Fc at a final concentration of 2 µg/ml. Quantification of EphB4 phosphorylation was assessed in a 96-well plate via sandwich ELISA using a myc capture antibody and an antiphosphotyrosine detection antibody. Table 4: Cell IC50 (µmol/l) in cells overexpressing EphB4

Cc1ccc(NC(=O)c2cccc(C(F)(F)F)c2)cc1-n1c(N)c(C(N)=O)c2nc3ccccc3nc21 [Compound 10g, 2-amino-1-(2-methyl-5-(3-(trifluoromethyl)benzamido)phenyl)-1H-pyrrolo[2,3-b]quinoxaline-3-carboxamide]
GI50 (HT-29): 5.87 µM
GI50 [1]: 2500 nM
ΔTm at 20 µM (EphA3): 12.3 °C
GI50 [2]: 4230 nM
GI50 [3]: 3880 nM
GI50 (K-562 leukemia cells): 730 nM
GI50 [4]: 800 nM

NC(=O)c1c(N)n(-c2cc(NC(=O)c3cccc(C(F)(F)F)c3)ccc2F)c2nc3ccccc3nc12 [Compound 10h, 2-amino-1-(2-fluoro-5-(3-(trifluoromethyl)benzamido)phenyl)-1H-pyrrolo[2,3-b]quinoxaline-3-carboxamide]
GI50 (HT-29): 1.8 µM
GI50 [1]: 1880 nM
ΔTm at 20 µM (EphA3): 10.9 °C
GI50 [2]: 2060 nM
GI50 [3]: 1440 nM
GI50 (K-562 leukemia cells): 370 nM
GI50 [4]: 2160 nM

Cc1ccc(C(=O)Nc2cccc(C(F)(F)F)c2)cc1-n1c(N)c(C(N)=O)c2nc3ccccc3nc21 [Compound 10i]
GI50 (HT-29): 2.82 µM
GI50 [1]: 2070 nM
ΔTm at 20 µM (EphA3): 14.4 °C
GI50 [2]: 1920 nM
GI50 [3]: 1320 nM
GI50 (K-562 leukemia cells): 36 nM
GI50 [4]: 1570 nM

NC(=O)c1c(N)n(-c2cc(C(=O)Nc3cccc(C(F)(F)F)c3)ccc2F)c2nc3ccccc3nc12 [Compound 10j]
GI50 (HT-29): 2.97 µM
GI50 [1]: 2440 nM
ΔTm at 20 µM (EphA3): 13 °C
GI50 [2]: 2120 nM
GI50 [3]: 2690 nM
GI50 (K-562 leukemia cells): 81 nM
GI50 [4]: 1870 nM

NC(=O)c1c(N)n(-c2ccc(NC(=S)Nc3cccc(C(F)(F)F)c3)cc2)c2nc3ccccc3nc12 [Compound 10k, 2-amino-1-(4-(3-(3-(trifluoromethyl)phenyl)thioureido)phenyl)-1H-pyrrolo[2,3-b]quinoxaline-3-carboxamide]
GI50 (HT-29): 16.3 µM
GI50 [1]: 8730 nM
ΔTm at 20 µM (EphA3): 9.9 °C
GI50 [2]: 4250 nM
GI50 [3]: 9630 nM
GI50 (K-562 leukemia cells): 5070 nM
GI50 [4]: 2520 nM

Cc1cn(-c2cc(NC(=O)c3ccc(C)c(-n4c(N)c(C(N)=O)c5nc6ccccc6nc54)c3)cc(C(F)(F)F)c2)cn1 [Compound 10l]
GI50 (HT-29): 4.36 µM
GI50 [1]: 5710 nM
ΔTm at 20 µM (EphA3): 16.2 °C
GI50 [2]: 3010 nM
GI50 [3]: 3050 nM
GI50 (K-562 leukemia cells): 29 nM
GI50 [4]: 2840 nM

Cc1cn(-c2cc(C(=O)Nc3ccc(C)c(-n4c(N)c(C(N)=O)c5nc6ccccc6nc54)c3)cc(C(F)(F)F)c2)cn1 [Compound 10m]
GI50 (HT-29): 13.4 µM
GI50 [1]: 4010 nM
ΔTm at 20 µM (EphA3): 15.8 °C
GI50 [2]: 5120 nM
GI50 [3]: 1930 nM
GI50 (K-562 leukemia cells): 30 nM
GI50 [4]: 2540 nM

CC(C)(C)c1cc(NC(=O)Nc2ccc(-n3c(N)c(C(N)=O)c4nc5ccccc5nc43)cc2)n(-c2ccc3ncccc3c2)n1 [Compound 10n, 2-amino-1-(4-(3-(5-tert-butyl-2-quinolin-6-yl-2H-pyrazol)ureido)phenyl)-1H-pyrrolo[2,3-b]quinoxaline-3-carboxamide]
GI50 (HT-29): 1.25 µM
GI50 [1]: 730 nM
ΔTm at 20 µM (EphA3): 19.3 °C
control binding to the kinase in presence of the compound relative to control binding in absence of the compound [5]: less than 10% of control
GI50 [2]: 450 nM
IC50 (full-length human EphB4): 1100 nM
GI50 [3]: 210 nM
GI50 (K-562 leukemia cells): 3 nM
GI50 [4]: 150 nM

Cc1ccc(-n2nc(C(C)(C)C)cc2NC(=O)Nc2ccc(-n3c(N)c(C(N)=O)c4nc5ccccc5nc43)cc2)cc1 [Compound 10o]
GI50 (HT-29): 0.78 µM
GI50 [1]: 1000 nM
ΔTm at 20 µM (EphA3): 17.3 °C
control binding to the kinase in presence of the compound relative to control binding in absence of the compound [5]: less than 10% of control
GI50 [2]: 1480 nM
IC50 (full-length human EphB4): 370 nM
GI50 [3]: 980 nM
GI50 (K-562 leukemia cells): 20 nM
GI50 [4]: 210 nM

NC(=O)c1c(N)n(-c2ccc(NC(=O)Nc3cccc(C(F)(F)F)c3)cc2)c2nc3ccccc3nc12 [Compound 10p, 2-amino-1-(4-(3-(3-(trifluoromethyl)phenyl)ureido)phenyl)-1H-pyrrolo[2,3-b]quinoxaline-3-carboxamide]
GI50 (HT-29): 18 µM
GI50 [1]: 10800 nM
GI50 [2]: 10000 nM
GI50 [3]: 10300 nM
GI50 (K-562 leukemia cells): 5450 nM
GI50 [4]: 670 nM
